Data published in patent EP0531958A1, “6-Aminoquinolones, their synthesis and their use as antibacterial agents” (MEDIOLANUM FARMACEUTICI S.P.A., priority 1991, dated 1993).
Values after ≈ are worked out from the molar mass of the structure shown. Like-named read-outs stand apart in the source and are kept apart here.

Columns and labels:
Format in all cases: cell-based
Gram + = test: MIC test, average over the 5 gram-positive test germs; conditions: 24 h
Experimental: (§1) As to the antibacterial activity, there was determined the Least (Minimum) Inhibiting Concentration (MIC), by working according to the following operative conditions.
(§2) There were used suspensions of test germs (5 gram-positive and 15 gram-negative) having a known titre, kept freezed at -80°C and diluted, at the time of use, in peptonized water up to a concentration of 1-2.10⁷ cfu/ml.
(§3) A few mg of the products, according to the invention were weighed sufficient for preparing parent solutions in DMSO + NaOH (1N) containing 2560 µg/ml (64µg/ml/dish). From the thus prepared parent solutions there were prepared 12 serial dilutions (1:2) down to the concentration of 1.25 µg/ml.
(§4) 0.5 ml of the different dilutions of each product were distributed on dishes containing 19.5 ml of agarized medium (TSA), maintained in a fluid state at the temperature of 50°C. After slight stirring, the dishes were made to solidify and dry under hood (laminar flow).
(§5) The MIC tests (Least or "Minimum" Inhibiting Concentration) were performed by using a Steers multiwell inoculator having 36 wells, each containing 200 µl of bacterial suspension.
(§6) After inoculation, the dishes were placed into a thermostat and checked after 24 h of incubation at 35°C.
(§7) The MIC is defined as the lowermost product concentration (µg/ml) inhibiting the visible growth of the microorganisms.

[1] = tested on: Acinebacter calcoloaceticus OSMPV 1130; test: MIC test, agar dilution with Steers multiwell inoculator; conditions: TSA dishes, 24 h at 35°C, read-out: Minimum Inhibiting Concentration
Experimental: as §1, §2, §3, §4, §5, §6, §7

[2] = tested on: Enterobacter cloacae OMNF 1153; test: as above; conditions: OMNF1153, TSA dishes, 24 h at 35°C, read-out: Minimum Inhibiting Concentration
Experimental: as §1, §2, §3, §4, §5, §6, §7

[3] = tested on: Enterobacter cloacae OMNF 1174; test: as above; conditions: OMNF1174, TSA dishes, 24 h at 35°C, read-out: Minimum Inhibiting Concentration
Experimental: as §1, §2, §3, §4, §5, §6, §7

Escherichia coli 120 = test: as above; conditions: TSA dishes, 24 h at 35°C, read-out: Minimum Inhibiting Concentration
Experimental: as §1, §2, §3, §4, §5, §6, §7

[4] = tested on: Escherichia coli ATCC 8739; test: as above; conditions: ATCC8739, TSA dishes, 24 h at 35°C, read-out: Minimum Inhibiting Concentration
Experimental: as §1, §2, §3, §4, §5, §6, §7

Escherichia coli CNUR 1 = test: as above; conditions: CNUR1, TSA dishes, 24 h at 35°C, read-out: Minimum Inhibiting Concentration
Experimental: as §1, §2, §3, §4, §5, §6, §7

Escherichia coli CNUR 8 = test: as above; conditions: CNUR8, TSA dishes, 24 h at 35°C, read-out: Minimum Inhibiting Concentration
Experimental: as §1, §2, §3, §4, §5, §6, §7

Escherichia coli ISF 432 = test: as above; conditions: ISF432, TSA dishes, 24 h at 35°C, read-out: Minimum Inhibiting Concentration
Experimental: as §1, §2, §3, §4, §5, §6, §7

[5] = tested on: Klebsiella pneumoniae ATCC 10031; test: as above; conditions: ATCC10031, TSA dishes, 24 h at 35°C, read-out: Minimum Inhibiting Concentration
Experimental: as §1, §2, §3, §4, §5, §6, §7

Proteus vulgaris CNUR 6 = test: as above; conditions: CNUR6, TSA dishes, 24 h at 35°C, read-out: Minimum Inhibiting Concentration
Experimental: as §1, §2, §3, §4, §5, §6, §7

[6] = tested on: Providencia stuardii CNUR 5; test: as above; conditions: CNUR5, TSA dishes, 24 h at 35°C, read-out: Minimum Inhibiting Concentration
Experimental: as §1, §2, §3, §4, §5, §6, §7

[7] = tested on: Pseudomonas aeruginosa ATCC 9027; test: as above; conditions: ATCC9027, TSA dishes, 24 h at 35°C, read-out: Minimum Inhibiting Concentration
Experimental: as §1, §2, §3, §4, §5, §6, §7

[8] = tested on: Pseudomonas aeruginosa CNUR 2; test: as above; conditions: CNUR2, TSA dishes, 24 h at 35°C, read-out: Minimum Inhibiting Concentration
Experimental: as §1, §2, §3, §4, §5, §6, §7

[9] = tested on: Pseudomonas aeruginosa CNUR 4; test: as above; conditions: CNUR4, TSA dishes, 24 h at 35°C, read-out: Minimum Inhibiting Concentration
Experimental: as §1, §2, §3, §4, §5, §6, §7

Shighella enteritidis = test: as above; conditions: TSA dishes, 24 h at 35°C, read-out: Minimum Inhibiting Concentration
Experimental: as §1, §2, §3, §4, §5, §6, §7

[10] = tested on: Staphylococcus aureus ATCC 6538; test: as above; conditions: ATCC6538, TSA dishes, 24 h at 35°C, read-out: Minimum Inhibiting Concentration
Experimental: as §1, §2, §3, §4, §5, §6, §7

[11] = tested on: Staphylococcus aureus MPR 5; test: as above; conditions: MPR5, TSA dishes, 24 h at 35°C, read-out: Minimum Inhibiting Concentration
Experimental: as §1, §2, §3, §4, §5, §6, §7

[12] = tested on: Staphylococcus epidermidis CPHL A2; test: as above; conditions: CPHLA2, TSA dishes, 24 h at 35°C, read-out: Minimum Inhibiting Concentration
Experimental: as §1, §2, §3, §4, §5, §6, §7

[13] = tested on: Staphylococcus epidermidis HCF Berset C.; test: as above; conditions: TSA dishes, 24 h at 35°C, read-out: Minimum Inhibiting Concentration
Experimental: as §1, §2, §3, §4, §5, §6, §7

[14] = tested on: Streptococcus facealis LEP Br.; test: as above; conditions: TSA dishes, 24 h at 35°C, read-out: Minimum Inhibiting Concentration
Experimental: as §1, §2, §3, §4, §5, §6, §7

Gram - = test: MIC test, average over the 15 gram-negative test germs; conditions: 24 h
Experimental: as §1, §2, §3, §4, §5, §6, §7

[15] = geometrical average of the MIC over the 5 Gram + strains, read-out: Geometrical Average
[16] = geometrical average of the MIC over the 15 Gram - strains, read-out: Geometrical Average
[17] = mean log of the MIC over the 15 Gram - strains, read-out: Log (converted)

`Cc1c(N2CCN(C)CC2)c(N)cc2c(=O)c(C(=O)O)cn(C3CC3)c12` [Compound 33] gave an MIC (Gram +; [15]) of 1.15 µg/mL, an MIC (Gram +; read-out: Log (converted)) of 1.15 µg/mL (≈ 3.22 µM) and an MIC [1] of 2 µg/mL (≈ 5.61 µM). For the same compound, the MIC [2] was 0.25 µg/mL (≈ 0.701 µM), the MIC [3] was 0.06 µg/mL (≈ 0.168 µM) and the MIC (Escherichia coli 120) was 0.06 µg/mL (≈ 0.168 µM). The MIC [4] was 0.06 µg/mL (≈ 0.168 µM), the MIC (Escherichia coli CNUR 1) was 0.06 µg/mL (≈ 0.168 µM) and the MIC (Escherichia coli CNUR 8) was 0.06 µg/mL (≈ 0.168 µM). For the same compound, the MIC (Escherichia coli ISF 432) was 0.03 µg/mL (≈ 0.0842 µM), the MIC [5] was 0.03 µg/mL (≈ 0.0842 µM) and the MIC (Proteus vulgaris CNUR 6) was 8 µg/mL (≈ 22.4 µM). The MIC [6] was 2 µg/mL (≈ 5.61 µM), the MIC [7] was 2 µg/mL (≈ 5.61 µM) and the MIC [8] was 8 µg/mL (≈ 22.4 µM). It also gave an MIC [9] of 16 µg/mL (≈ 44.9 µM), an MIC (Shighella enteritidis) of 0.06 µg/mL (≈ 0.168 µM) and an MIC [10] of 0.5 µg/mL (≈ 1.4 µM). For the same compound, the MIC [11] was 1 µg/mL (≈ 2.81 µM), the MIC [12] was 1 µg/mL (≈ 2.81 µM) and the MIC [13] was 0.5 µg/mL (≈ 1.4 µM). The MIC [14] was 8 µg/mL (≈ 22.4 µM), the MIC (Gram -; [16]) was 0.338 µg/mL (≈ 0.948 µM) and the MIC (Gram -; [17]) was 0.338 µg/mL (≈ 0.948 µM).

For `Cc1c(N2CCNCC2)c(N)cc2c(=O)c(C(=O)O)cn(C3CC3)c12` [Compound 34], the MIC (Gram +; [15]) was 2 µg/mL, the MIC (Gram +; read-out: Log (converted)) was 2 µg/mL (≈ 5.84 µM) and the MIC [1] was 4 µg/mL (≈ 11.7 µM). It also gave an MIC [2] of 0.25 µg/mL (≈ 0.73 µM), an MIC [3] of 0.12 µg/mL (≈ 0.35 µM) and an MIC (Escherichia coli 120) of 0.12 µg/mL (≈ 0.35 µM). It also gave an MIC [4] of 0.12 µg/mL (≈ 0.35 µM), an MIC (Escherichia coli CNUR 1) of 0.12 µg/mL (≈ 0.35 µM) and an MIC (Escherichia coli CNUR 8) of 0.06 µg/mL (≈ 0.175 µM). It also gave an MIC (Escherichia coli ISF 432) of 0.06 µg/mL (≈ 0.175 µM), an MIC [5] of 0.06 µg/mL (≈ 0.175 µM) and an MIC (Proteus vulgaris CNUR 6) of 8 µg/mL (≈ 23.4 µM). It also gave an MIC [6] of 2 µg/mL (≈ 5.84 µM), an MIC [7] of 4 µg/mL (≈ 11.7 µM) and an MIC [8] of 16 µg/mL (≈ 46.7 µM). It also gave an MIC [9] of 16 µg/mL (≈ 46.7 µM), an MIC (Shighella enteritidis) of 0.06 µg/mL (≈ 0.175 µM) and an MIC [10] of 1 µg/mL (≈ 2.92 µM). The MIC [11] was 2 µg/mL (≈ 5.84 µM), the MIC [12] was 1 µg/mL (≈ 2.92 µM) and the MIC [13] was 2 µg/mL (≈ 5.84 µM). For the same compound, the MIC [14] was 8 µg/mL (≈ 23.4 µM), the MIC (Gram -; [16]) was 0.51 µg/mL (≈ 1.49 µM) and the MIC (Gram -; [17]) was 0.513 µg/mL (≈ 1.5 µM).
